Experimental data: patent publication US11083725B2 (priority 2014, dated 2021)

Test system: NHBE cells
Experiment: Biolog metabolic array: substrate use by NHBE cells with or without CA09 infection
Type: cell-based, human
Settings: for Substrate use, 590 nm absorbance normalized to zero hour, 1 hr: Biolog PMM2, 1 hr; for Substrate use, 590 nm absorbance normalized to zero hour, 5 hr: Biolog PMM2, 5 hr; for Substrate use, 590 nm absorbance normalized to zero hour, 7 hr: Biolog PMM2, 7 hr; for Substrate use, 590 nm absorbance normalized to zero hour, 0 hr: Biolog PMM2, 0 hr
[1] = Control (uninfected) NHBE cells
[2] = Virus (CA09-infected, MOI 1) NHBE cells
[3] = Virus: CA09-infected NHBE cells, MOI 1, Biolog PMM2
[4] = Virus (CA09, MOI 1) infected NHBE cells

SMILES	590 nm absorbance normalized to zero hour (substrate use), 1 hr [1]	590 nm absorbance normalized to zero hour (substrate use), 2 hr [1]	590 nm absorbance normalized to zero hour (substrate use), 3 hr [1]	590 nm absorbance normalized to zero hour (substrate use), 4 hr [1]	590 nm absorbance normalized to zero hour (substrate use), 6 hr [1]	590 nm absorbance normalized to zero hour (substrate use), 8 hr [1]	590 nm absorbance normalized to zero hour (substrate use), 9 hr [1]	590 nm absorbance normalized to zero hour (substrate use), 10 hr [1]	590 nm absorbance normalized to zero hour (substrate use), 11 hr [1]	Substrate use, 590 nm absorbance normalized to zero hour, 1 hr [1]	Substrate use, 590 nm absorbance normalized to zero hour, 5 hr [1]	Substrate use, 590 nm absorbance normalized to zero hour, 7 hr [1]	590 nm absorbance normalized to zero hour (substrate use), 1 hr [2]	590 nm absorbance normalized to zero hour (substrate use), 2 hr [2]	590 nm absorbance normalized to zero hour (substrate use), 3 hr [2]	590 nm absorbance normalized to zero hour (substrate use), 4 hr [2]	590 nm absorbance normalized to zero hour (substrate use), 6 hr [2]	590 nm absorbance normalized to zero hour (substrate use), 8 hr [2]	590 nm absorbance normalized to zero hour (substrate use), 9 hr [2]	590 nm absorbance normalized to zero hour (substrate use), 10 hr [2]	also measured
OC[C@H]1O[C@@H](O[C@@H]2[C@@H](CO)OC(O)(CO)[C@H]2O)[C@H](O)[C@@H](O)[C@H]1O (mixture of isomers) [Lactulose]	1.71	2.30	2.70	2.88	3.78	4.04	4.27	4.46	5.14	1.71	3.40	3.82	1.68	2.24	2.56	2.71	3.31	3.70	4.05	4.25	590 nm absorbance normalized to zero hour (substrate use), 5 hr [2]: 3.13; 590 nm absorbance normalized to zero hour (substrate use), 7 hr [2]: 3.50; 590 nm absorbance normalized to zero hour (substrate use), 11 hr [2]: 4.63; 590 nm absorbance normalized to zero hour (substrate use), 1 hr [3]: 1.68; 590 nm absorbance normalized to zero hour (substrate use), 2 hr [3]: 2.24; 590 nm absorbance normalized to zero hour (substrate use), 3 hr [3]: 2.56; 590 nm absorbance normalized to zero hour (substrate use), 4 hr [3]: 2.71; 590 nm absorbance normalized to zero hour (substrate use), 5 hr [3]: 3.13; 590 nm absorbance normalized to zero hour (substrate use), 6 hr [3]: 3.31; 590 nm absorbance normalized to zero hour (substrate use), 7 hr [3]: 3.50; 590 nm absorbance normalized to zero hour (substrate use), 8 hr [3]: 3.70; 590 nm absorbance normalized to zero hour (substrate use), 9 hr [3]: 4.05; 590 nm absorbance normalized to zero hour (substrate use), 10 hr [3]: 4.25; 590 nm absorbance normalized to zero hour (substrate use), 11 hr [3]: 4.63
O=P(O)(O)OC[C@H](O)CO (racemic) [D,L-a-Glycerol Phosphate]	0.34	0.48	0.56	0.60	0.71	0.83	0.91	0.91	1.05	0.34	0.70	0.79	2.01	2.64	3.07	3.24	3.99	4.43	4.93	5.12	590 nm absorbance normalized to zero hour (substrate use), 0 hr [1]: 1.00; Substrate use, 590 nm absorbance normalized to zero hour, 0 hr [1]: 1.00; Substrate use, 590 nm absorbance normalized to zero hour, 0 hr [4]: 1.00; Substrate use, 590 nm absorbance normalized to zero hour, 1 hr [4]: 2.01; Substrate use, 590 nm absorbance normalized to zero hour, 5 hr [4]: 3.72; Substrate use, 590 nm absorbance normalized to zero hour, 7 hr [4]: 4.18; 590 nm absorbance normalized to zero hour (substrate use), 0 hr [2]: 1.00; 590 nm absorbance normalized to zero hour (substrate use), 11 hr [2]: 5.62
